Results on 3 compounds are retold here after publication PMC4263429 (Biochemistry, 2014).

Series [1] deals with type 2 dehydratase from E. coli. The following applies: cited from earlier work.
Series [2] concerns type 1 dehydratase from P. asaccharolyticus. The following applies: cited from earlier work.
In a further series the test system is N[C@@H](CO)C(=O)O. Briefly: purified protein, by the assay type.

What is called kcat/Km is the second-order rate constant that governs catalysis at low substrate concentration.

Regarding `N[C@H](CO)C(=O)O` [D-serine], in series [1], the type of inhibition result is recorded as “competitive inhibitors”.
`N[C@@H](CS)C(=O)O` [L-cysteine]: the type of inhibition result in series [2] is recorded as “competitive inhibitor”; in series [1], “competitive inhibitors”.
On to (Legionella pneumophila str. Lens), for which, in the series on N[C@@H](CO)C(=O)O, the catalytic efficiency (kcat/Km) came to 165000 ± 8000 M⁻¹ s⁻¹.
